Source: patent publication US8026110B2, “Combinatorial rosamine library and uses thereof” (New York University, priority 2006, dated 2011)
“Also recorded” adds a separate entry of the source.

Tested on: DNA
Test: Screening of rosamine library toward 47 analytes: DNA
Type: binding
Conditions: screen of 47 analytes, duplicated, FIG. 10B
Protocol: The rosamine derivative compounds were screened toward 47 different analytes that include proteins, polysaccharides, nucleic acids, and metal ions. The stock solution of each dye (50 μL) in HEPES (20 mM, pH=7.4) or PBS (20 mM, pH=7.4) was prepared, and diluted with the each analyte (50 μL, 1.0 mg/mL or 200 μM) in the same buffer solution. The final dye concentration varied from 0.5 μM to 10 μM. The fluorescence intensity fold changes of each dye in the presence of analytes were calculated by comparing the fluorescence intensity at the maximum emission wavelength with/without the analyte.

CCN(CCCN(C)C)c1ccc2c(=O)c3ccc(N)cc3oc2c1 [L, 3-Amino-6-[(3-dimethylamino-propyl)-ethyl-amino]-xanthen-9-one]
fluorescence response to DNA: selective response; also recorded: selective increase of fluorescence intensity
